Measurements published in PubChem BioAssay (NCI).
Values joined by “and” are separate entries in the source; they are usually repeats but may differ in a detail not shown here. Equal entries are not always repeated.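 The compound was tested at five concentrations on cells cultured in 96-well plates, with a 48-hour exposure period. GI50 is the concentration that inhibits growth by half. TGI marks complete inhibition of growth.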

Experiments:
Experiment in all cases: NCI anticancer screen, dose series, 48 h
[1] = system: ACHN renal
[2] = system: HT29 colon
[3] = system: HCT-15 colon
[4] = system: A549 NSCLC
[5] = system: RPMI-8226 leukemia
[6] = system: SK-MEL-5 melanoma
[7] = system: OVCAR-5 ovarian
[8] = system: SF-295 CNS
[9] = system: MCF7 breast
[10] = system: T-47D breast

Row | Compound | GI50 [1] [µM] | TGI [1] | GI50 [2] [µM] | TGI [2] | GI50 [3] [µM] | TGI [3] | GI50 [4] [µM] | TGI [4] | GI50 [5] [µM] | TGI [5] | GI50 [6] [µM] | TGI [6] | GI50 [7] [µM] | TGI [7] | TGI [8] [µM] | GI50 [9] [µM] | TGI [9] [µM] | GI50 [8] [µM] | GI50 [10] [µM] | TGI [10] [µM]
1 | C[C@@]12CCCc3coc(c31)C(=O)c1cc3c(cc12)C(=O)C=CC3=O | > 1 | > 1 µM and 25.4 µM | > 1 | > 1 µM and 44.9 µM | > 1 | > 1 µM and 36.7 µM | > 1 | > 1 µM and 51.4 µM | > 1 | > 1 µM and 35 µM | > 1 | > 1 µM and 30.9 µM | > 1 | > 1 µM and 36.4 µM | > 1 | – | – | – | – | –
2 | CN1NC(=Nc2ccccc2)Sc2c1cnn(-c1ccccc1)c2=O | – | > 100 µM | – | > 100 µM | – | > 100 µM | – | > 100 µM | – | > 100 µM | – | – | – | – | > 100 | – | – | – | – | –
3 | C=CCNC(=O)N(CCC)CCCCC(NC(C)=O)C(=O)NCc1ccccc1 (stereo unspecified) | – | > 100 µM | – | > 100 µM | – | > 100 µM | – | > 100 µM | – | > 100 µM | – | > 100 µM | – | > 100 µM | > 100 | – | – | – | – | –
4 | COC(=O)CCC(=O)CC1CC(=O)C2CCCN12 (stereo unspecified) | – | > 100 µM | – | > 100 µM | – | – | – | > 100 µM | – | > 100 µM | – | > 100 µM | – | > 100 µM | > 100 | – | – | – | – | –
5 | Cc1cc2c(cc1Cl)SC(=Nc1ccc(Cl)cc1)N(S(=O)(=O)c1ccccc1)S2(=O)=O | 1.95 | 10.5 µM | – | – | 2.77 | 13 µM | 13.7 | 32.2 µM | 2.67 | 14.7 µM | 6.82 | 19.2 µM | 4.43 | 18.7 µM | 32.6 | 6.05 | 22.4 | 13.2 | – | –
6 | COc1cc2cccc(N=Cc3cccc(OC)c3OC(C)C)c2cc1OC | – | > 100 µM | – | 50.2 µM | – | – | – | 86.5 µM | – | 37.7 µM | – | 53.9 µM | – | > 100 µM | 41.2 | – | – | – | – | –
7 | C=C1C(=O)O[C@H]2/C=C(/C)C3=CC(=O)[C@@](C)(C[C@@H](OC(=O)/C(C)=C\C)C12)O3 (stereo partly specified) | – | 0.958 µM | – | 1.21 µM | – | 1.45 µM | – | 17.8 µM | – | – | – | > 35.3 µM | – | 6.19 µM | 29.3 | – | – | – | – | –
8 | CC(C)CCCC(C)[C@H]1CCC2[C@H]3C(CC[C@@]21C)[C@@]1(C)CCC=C[C@]12C[C@@H]2[C@@H]3O (stereo partly specified) | – | > 100 µM | – | > 100 µM | – | > 100 µM | – | > 100 µM | – | > 100 µM | – | > 100 µM | – | > 100 µM | > 100 | – | – | – | – | –
9 | C1C[OH+]CCNCC[OH+]CC[OH+]CCN1.[Cl-].[Pt+4] | > 100 | > 100 µM | > 100 | > 100 µM | > 100 | > 100 µM | > 100 | > 100 µM | > 100 | > 100 µM | > 100 | > 100 µM | – | – | > 100 | – | – | > 100 | – | –
10 | O=C1c2ccc3c4ccccc4n(Cc4ccccc4)c3c2C(=O)N1c1ccccc1 | – | > 50.5 µM | – | 39.2 µM | – | 22.7 µM | – | 34.9 µM | – | 40.1 µM | – | 29.9 µM | – | 33 µM | 28.3 | – | – | – | – | –
11 | Nc1nc(CCl)nc(Nc2ccccc2)n1 | – | 66.1 µM | – | 27.9 µM | – | – | – | 79.4 µM | – | 19.8 µM | – | 36.5 µM | – | 43.4 µM | 81.7 | – | – | – | – | –
12 | COC(=O)/C(C#N)=C1\CCC(O)N1 (stereo unspecified) | – | > 100 µM | – | > 100 µM | – | – | – | > 100 µM | – | > 100 µM | – | – | – | > 100 µM | > 100 | – | – | – | – | –
13 | CC(=O)c1sc(-c2nc(C)c(C(=O)/C=C\c3ccc(/C=C\C(=O)c4sc(-c5nc(C)c(C(C)=O)s5)nc4C)cc3)s2)nc1C | – | > 100 µM | – | > 100 µM | – | > 100 µM | – | > 100 µM | – | > 100 µM | – | – | – | > 100 µM | > 100 | – | – | – | – | –
14 | Cc1cc(NS(=O)(=O)c2ccc(Nc3c4ccccc4nc4c(C(=O)NCCN(C)C)cccc34)cc2)no1 | – | 19 µM | – | > 100 µM | – | > 100 µM | – | 71 µM | – | – | – | 11.8 µM | – | > 100 µM | 47.5 | – | – | – | – | –
15 | N#C/C(=C/N1CCN(C(=O)c2ccco2)C1=S)C(=O)c1ccccc1 | 16.6 | 72.5 µM | 30.5 | > 100 µM | 5.73 | > 100 µM | 22 | 58.4 µM | 5.56 | > 100 µM | 8.25 | 22.2 µM | – | – | > 100 | 4.47 | > 100 | 43.6 | 7.16 | > 100
16 | COc1ccc(-c2c[nH]c(=S)n2-c2ccc(OC)cc2)cc1 | > 50 | > 50 µM | > 50 | > 50 µM | > 50 | > 50 µM | > 50 | > 50 µM | 20.4 | > 50 µM | > 50 | > 50 µM | > 50 | > 50 µM | > 50 | > 50 | > 50 | > 50 | – | –
17 | Cc1ccc(S(=O)(=O)NCCNc2nccc(-c3c(-c4ccc(F)cc4)nc4sccn34)n2)cc1 | 2.3 | > 100 µM | – | – | – | – | 3.44 | > 100 µM | – | – | 3.52 | > 100 µM | > 100 | > 100 µM | 77.1 | 1.48 | > 100 | 12.6 | 3.85 | > 100
18 | CC1(C)O/C(=C\c2ccccc2)C(=O)/C(=C/c2ccccc2)O1 | – | > 100 µM | – | > 100 µM | – | – | – | > 100 µM | – | 54.6 µM | – | 27.9 µM | – | 60.8 µM | > 100 | – | – | – | – | –
19 | CC1=NN(C(=O)CC(=O)N(C(=O)c2ccccc2Cl)c2ccc(C)cc2)C(=O)C1N=Nc1ccc([N+](=O)[O-])cc1 (stereo unspecified) | – | > 100 µM | – | > 100 µM | – | > 63.5 µM | – | > 67.7 µM | – | > 70.3 µM | – | > 100 µM | – | > 100 µM | > 100 | – | – | – | – | –
20 | C[n+]1cc(C(O)c2ccc3c(c2)OCO3)c2ccccc2c1 (stereo unspecified) | – | > 100 µM | – | > 100 µM | – | > 100 µM | – | > 100 µM | – | 98.8 µM | – | 44.2 µM | – | > 100 µM | > 100 | – | – | – | – | –
